Here are results for 9 compounds from patent US20170082610A1, “METHOD FOR PREDICTING TOXICITY OF A COMPOUND BASED ON NUCLEAR FACTOR-kB TRANSLOCATION” (priority 2014, published 2017).

Like-named read-outs stand apart in the source and are kept apart here.

Experiment [1] concerns NF-κB p65. The experiment in a line: HCS assay of compound-induced NF-κB p65 nuclear translocation in HPTC1 (Example 3). The conditions noted are these: for nuclear translocation of NF-κB (positive control sample): FIG. 9. The experiment is classed as cell-based, human. From the text:
(§1) No. 58488852 (HPTC 1) and Lot. No. 61247356 (HPTC10), were bought from the American Type Culture Collection (ATCC, Manassas, Va., USA). HPTC6 were isolated from a nephrectomy sample obtained from the National University Health System (NUHS, Singapore). Only normal tissue without pathological changes was used, which was selected by a pathologist. […] No. PCS-400-030) supplemented with Renal Epithelial Cell Growth Kit (ATCC, Cat. No. PCS-400-040) and 1% Penicillin Streptomycin (Gibco, Cat. No. 15140-122). […] HK-2 and LLC-PK1cells were purchased from ATCC. These two cell lines were maintained in Dulbecco's Modified Eagle Medium (DMEM) supplemented with 10% fetal bovine serum (FBS) and 1% Penicillin Streptomycin. Approval for the work with human kidney samples (DSRB-E/11/143) and cell types (NUS-IRB Ref. Code: 09-[…]) had been obtained. All cells were incubated in a humidified atmosphere at 37° C. and 5% CO2. Cells were seeded into 384-well black plates with transparent bottom (Greiner, Cat. No. 781091). HPTC1 and HPTC6 were seeded at 50,000 cells/cm^2; HPTC10 were seeded at 100,000 cells/cm^2; HK-2 cells were seeded at 20,000 cells/cm^2 and LLC-PK1 cells were seeded at 10,000 cells/cm^2 to adjust for the different growth kinetics of the different cell types and batches used. All cells were cultivated for 3 days to achieve the formation of a differentiated simple epithelium before drug treatment overnight (16 hours). The concentrations of the 43 drugs screened were 1000, 500, 250, 125, 63, 16 and 1.6 μg/mL. Puromycin at 100 μg/mL and TNF-α at 100 ng/mL were used as positive controls. […] The images were automatically analysed by using MetaXpressTM image analysis software version 2.0 using the Translocation-Enhanced Module. […] The intensity ratios of the outer nuclear area versus the inner nuclear area were automatically quantified by the MetaXpressTM image analysis software (version 2.0). The final quantitative results for each data point were the average results from 36 images (4 replicates (wells) with 9 multi-channel images per well). […]

A further experiment concerns HPTC1. The experiment in a line: Cell death in HPTC1 by HCS, based on counts of cell nuclei (Example 3). The settings on record: HPTC1, 16 hours, 1.6-1000 μg/mL. More on the design: species or system human.
Excerpt: as §1, with “CO2.” for “CO2. Cells were seeded into 384-well black plates with transparent bottom (Greiner, Cat. No. 781091). HPTC1 and HPTC6 were seeded at 50,000 cells/cm^2; HPTC10 were seeded at 100,000 cells/cm^2; HK-2 cells were seeded at 20,000 cells/cm^2 and LLC-PK1 cells were seeded at 10,000 cells/cm^2 to adjust for the different growth kinetics of the different cell types and batches used. All cells were cultivated for 3 days to achieve the formation of a differentiated simple epithelium before drug treatment overnight (16 hours). The concentrations of the 43 drugs screened were 1000, 500, 250, 125, 63, 16 and 1.6 μg/mL. Puromycin at 100 μg/mL and TNF-α at 100 ng/mL were used as positive controls.”

The subject of experiment [2] is NF-κB p65. The experiment in a line: HCS assay of compound-induced NF-κB p65 nuclear translocation in HPTC (Example 2). The experiment is classed as cell-based, human.
[3] abbreviates: HPTC, 16 hours, 1.6-1000 μg/mL, 96-well plates, HCS images.

In the case of `C=CC[C@@H]1/C=C(\C)C[C@H](C)C[C@H](OC)[C@H]2O[C@@](O)(C(=O)C(=O)N3CCCC[C@H]3C(=O)O[C@H](/C(C)=C/[C@@H]3CC[C@@H](O)[C@H](OC)C3)[C@H](C)[C@@H](O)CC1=O)[C@H](C)C[C@@H]2OC` [Tacrolimus], the “EC50 (compound concentration where nuclear translocation of NF-κB occurred in 50% of cells)” value in the experiment on NF-κB p65 [1] (HPTC1, 16 hours, 1.6-1000 μg/mL) is on record as “relatively low”. The “IC50 (compound concentration where cell death occurred in 50% of cells; counts of cell nuclei)” value in the experiment with HPTC1 was “relatively low”.

`O=[As]O[As]=O` (stereo not shown) [arsenic (III) oxide]: the “Qualitative analysis of NF-κB translocation (visual inspection)” value (from here on “Qualitative analysis”) with NF-κB p65 [2] (setting [3]) is given as “positive”.

As to `[Cl][Au]` [gold (I) chloride], the “Qualitative analysis” value with NF-κB p65 [2] (setting [3]) is “positive”.

`CC(=O)[O-].CC(=O)[O-].[Pb+2]` [lead acetate]: the “Qualitative analysis” value with NF-κB p65 [2] (setting [3]) is reported as “positive”.

As for `C[n+]1ccc(-c2cc[n+](C)cc2)cc1` [paraquat], the “Qualitative analysis” value in the experiment with NF-κB p65 [2] is “positive”.

With `[K+].[K+].[O]=[Cr](=[O])([O-])[O][Cr](=[O])(=[O])[O-]` [potassium dichromate], the “Qualitative analysis” value with NF-κB p65 [2] (setting [3]) was “positive”.

Take `COc1ccc(C[C@H](N)C(=O)N[C@H]2[C@@H](O)[C@H](n3cnc4c(N(C)C)ncnc43)O[C@@H]2CO)cc1` [puromycin]: in the experiment with NF-κB p65 [1] (HPTC1, 16 hours), the “nuclear translocation of NF-κB (positive control sample)” value is on record as “displayed nuclear translocation of NF-κB”.

For the compound TNF-α, the “nuclear translocation of NF-κB (positive control sample)” value with NF-κB p65 [1] (HPTC1, 100 ng/mL, 16 hours) is “displayed nuclear translocation of NF-κB”.

In the case of bismuth (III) oxide, the “Qualitative analysis” value with NF-κB p65 [2] (setting [3]) is “positive”.
